Data from patent US7049292B2, “Therapeutically effective peptides related to preproinsulin” (King's College London, priority 2004, dated 2006).
Where “and” joins values, the source holds several entries; their conditions need not be identical. Equal entries are not always repeated. Where two headings read alike, the source gives them in different places.

Legend:
[1] = tested on: anti-inflammatory (IL-10 secreting) CD4+ T lymphocytes in PBMCs; format: cell-based, human; settings: for IL-10 response, stimulation index (SI): PBMCs, peptide 10 μM
[2] = tested on: pathogenic (IFN-γ) CD4+ T lymphocytes in PBMCs; assay: IFN-γ ELISPOT analysis of PBMCs cultured with peptide; format: cell-based, human; settings: for Prevalence of IFN-γ responses, Totals (%) / Prevalence of IFN-γ responses, Totals (responders/tested): positive response SI≧3.0; for IFN-γ response, stimulation index (SI): PBMCs, peptide 10 μM
[3] = patient #6, T1DM with HLA-DR4 alleles
[4] = patient #24, T1DM with HLA-DR4 alleles
[5] = patient #27, T1DM with non-DR4 alleles
[6] = T1DM patients with HLA-DR4 alleles
[7] = T1DM patients with non-DR4 alleles

SFYLKNVQTQETRTLTQFHF [853–72, IA-2 peptide eluted from HLA-DR4]
Prevalence of IL-10 responses, Totals (responders/tested) [1]: 2/17 and 2/7 and 2/14 | IL-10 response, stimulation index (SI) ([1]; non-diabetic control subject C5): 4.7 | IL-10 response, stimulation index (SI) ([1]; non-diabetic control subject C8): 66.0 | IL-10 response, stimulation index (SI) [1, 3]: 4.3 | IL-10 response, stimulation index (SI) [1, 4]: 9.0 | IL-10 response, stimulation index (SI) [1, 5]: 20.0 | IL-10 response, stimulation index (SI) ([1]; patient #35, T1DM with non-DR4 alleles): 9.6 | Prevalence of IFN-γ responses, Totals (%) [2, 6]: (28) % | Prevalence of IFN-γ responses, Totals (responders/tested) [2, 6]: 7/25 | Prevalence of IFN-γ responses, Totals (%) [2, 7]: (18) % | Prevalence of IFN-γ responses, Totals (responders/tested) [2, 7]: 2/11 | IFN-γ response, stimulation index (SI) ([2]; non-diabetic control subject C9): 4.7 | Prevalence of IFN-γ responses, Totals (%) ([2]; non-diabetic control subjects): (7) % | Prevalence of IFN-γ responses, Totals (responders/tested) ([2]; non-diabetic control subjects): 1/14 | IFN-γ response, stimulation index (SI) ([2]; patient #1, T1DM with HLA-DR4 alleles): 10.0 | IFN-γ response, stimulation index (SI) ([2]; patient #3, T1DM with HLA-DR4 alleles): 10 | IFN-γ response, stimulation index (SI) [2, 3]: 6.6 | IFN-γ response, stimulation index (SI) ([2]; patient #9, T1DM with HLA-DR4 alleles): 5.2 | IFN-γ response, stimulation index (SI) ([2]; patient #13, T1DM with HLA-DR4 alleles): 3.6 | IFN-γ response, stimulation index (SI) [2, 4]: 48.3 | IFN-γ response, stimulation index (SI) [2, 5]: 3.1 | IFN-γ response, stimulation index (SI) ([2]; patient #34, T1DM with non-DR4 alleles): 3.7
